pIC50: −log10 of the molar value. Where two headings read alike, the source gives them in different places.
Assays:
FGFR2 = FGFR2 (Homo sapiens (Human), UniProt P21802); experiment: FGFR Enzymatic Assay (FGFR2); type: biochemical;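 further: FRET read-out of peptide phosphorylation by the purified kinase, with enzyme-free blank and uninhibited enzyme as controls, potency from a variable-slope sigmoidal dose-response fit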
Description: (§1) The inhibitor potency of compounds was measured in an enzyme assay that measures peptide phosphorylation using FRET measurements to detect product formation. Inhibitors were serially diluted in DMSO and a volume of 0.5 μL was transferred to the wells of a 384-well plate. For FGFR3, a 10 μL volume of FGFR3 enzyme (Millipore) diluted in assay buffer (50 mM HEPES, 10 mM MgCl2, 1 mM EGTA, 0.01% Tween-20, 5 mM DTT, pH 7.5) was added to the plate and pre-incubated for 5-10 minutes. Appropriate controls (enzyme blank and enzyme with no inhibitor) were included on the plate. […] The plate was incubated at 25° C. for 1 hr. […] The plate was allowed to equilibrate for ˜1 hr before scanning the wells on a PheraStar plate reader.
(§2) GraphPad prism3 was used to analyze the data. The IC50 values were derived by fitting the data to the equation for a sigmoidal dose-response with a variable slope. Y=Bottom+(Top−Bottom)/(1+10^((Log IC50−X)*HillSlope)) where X is the logarithm of concentration and Y is the response.

FGFR3 enzyme (Millipore) [1] = target: T1, FGFR3 enzyme (Millipore) (Homo sapiens (Human), UniProt P22607); experiment: biochemical
T1 sequence (P22607 23-806): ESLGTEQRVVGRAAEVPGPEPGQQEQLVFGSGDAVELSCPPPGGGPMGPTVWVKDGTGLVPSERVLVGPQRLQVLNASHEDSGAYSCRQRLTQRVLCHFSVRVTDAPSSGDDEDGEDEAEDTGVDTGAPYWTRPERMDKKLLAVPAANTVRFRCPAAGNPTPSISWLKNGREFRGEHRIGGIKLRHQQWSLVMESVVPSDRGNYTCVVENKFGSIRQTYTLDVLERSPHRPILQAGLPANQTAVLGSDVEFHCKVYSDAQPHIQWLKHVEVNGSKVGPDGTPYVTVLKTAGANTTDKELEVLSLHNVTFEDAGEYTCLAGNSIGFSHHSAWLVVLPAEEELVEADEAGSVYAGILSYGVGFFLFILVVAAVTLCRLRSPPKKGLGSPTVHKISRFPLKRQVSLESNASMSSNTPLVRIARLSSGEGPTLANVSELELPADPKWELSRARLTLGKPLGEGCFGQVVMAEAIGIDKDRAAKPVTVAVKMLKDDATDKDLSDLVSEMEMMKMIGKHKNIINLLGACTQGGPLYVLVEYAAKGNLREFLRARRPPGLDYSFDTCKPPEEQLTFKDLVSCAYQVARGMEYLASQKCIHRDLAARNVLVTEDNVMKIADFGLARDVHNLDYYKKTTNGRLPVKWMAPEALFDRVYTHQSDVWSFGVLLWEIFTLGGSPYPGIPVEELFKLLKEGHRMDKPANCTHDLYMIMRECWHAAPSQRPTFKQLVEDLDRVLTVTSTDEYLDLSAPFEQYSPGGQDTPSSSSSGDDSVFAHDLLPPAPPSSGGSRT
Description: as §1, §2

FGFR1 = FGFR1 (Homo sapiens (Human), UniProt P11362); experiment: FGFR Enzymatic Assay (FGFR1); type: biochemical; conditions: enzyme 0.02 nM, ATP 210 μM
FGFR1, sequence (P11362 22-822): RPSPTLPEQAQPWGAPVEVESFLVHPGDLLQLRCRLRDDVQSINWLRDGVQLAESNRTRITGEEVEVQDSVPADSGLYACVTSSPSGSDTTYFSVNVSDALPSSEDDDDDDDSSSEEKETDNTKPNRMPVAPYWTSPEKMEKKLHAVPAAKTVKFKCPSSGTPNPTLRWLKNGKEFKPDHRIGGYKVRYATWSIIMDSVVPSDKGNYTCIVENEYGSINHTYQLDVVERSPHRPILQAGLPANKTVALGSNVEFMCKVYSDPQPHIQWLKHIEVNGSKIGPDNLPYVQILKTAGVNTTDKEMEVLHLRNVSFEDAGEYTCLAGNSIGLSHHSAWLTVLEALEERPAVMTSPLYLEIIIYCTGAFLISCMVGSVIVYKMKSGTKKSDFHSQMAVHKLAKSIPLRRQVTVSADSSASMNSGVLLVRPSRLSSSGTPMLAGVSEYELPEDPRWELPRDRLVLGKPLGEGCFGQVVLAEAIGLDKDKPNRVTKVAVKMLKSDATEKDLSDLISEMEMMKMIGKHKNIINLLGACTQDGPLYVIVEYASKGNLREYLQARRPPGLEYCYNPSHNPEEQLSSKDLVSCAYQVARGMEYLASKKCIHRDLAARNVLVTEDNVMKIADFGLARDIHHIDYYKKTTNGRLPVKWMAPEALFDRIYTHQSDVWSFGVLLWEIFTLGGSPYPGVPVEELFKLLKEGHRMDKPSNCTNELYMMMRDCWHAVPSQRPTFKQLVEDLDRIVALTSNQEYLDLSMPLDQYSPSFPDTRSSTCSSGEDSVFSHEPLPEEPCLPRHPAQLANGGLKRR
Description: as §1, §2

FGFR3 enzyme (Millipore) [2] = target: T1, FGFR3 enzyme (Millipore); conditions: read-out: FGFR3 IC50, ATP 140 μM
Description: as §1, §2

[3] = enzyme 0.01 nM, ATP 100 μM, read-out: FGFR2 IC50

FGFR2, sequence (P21802 22-821): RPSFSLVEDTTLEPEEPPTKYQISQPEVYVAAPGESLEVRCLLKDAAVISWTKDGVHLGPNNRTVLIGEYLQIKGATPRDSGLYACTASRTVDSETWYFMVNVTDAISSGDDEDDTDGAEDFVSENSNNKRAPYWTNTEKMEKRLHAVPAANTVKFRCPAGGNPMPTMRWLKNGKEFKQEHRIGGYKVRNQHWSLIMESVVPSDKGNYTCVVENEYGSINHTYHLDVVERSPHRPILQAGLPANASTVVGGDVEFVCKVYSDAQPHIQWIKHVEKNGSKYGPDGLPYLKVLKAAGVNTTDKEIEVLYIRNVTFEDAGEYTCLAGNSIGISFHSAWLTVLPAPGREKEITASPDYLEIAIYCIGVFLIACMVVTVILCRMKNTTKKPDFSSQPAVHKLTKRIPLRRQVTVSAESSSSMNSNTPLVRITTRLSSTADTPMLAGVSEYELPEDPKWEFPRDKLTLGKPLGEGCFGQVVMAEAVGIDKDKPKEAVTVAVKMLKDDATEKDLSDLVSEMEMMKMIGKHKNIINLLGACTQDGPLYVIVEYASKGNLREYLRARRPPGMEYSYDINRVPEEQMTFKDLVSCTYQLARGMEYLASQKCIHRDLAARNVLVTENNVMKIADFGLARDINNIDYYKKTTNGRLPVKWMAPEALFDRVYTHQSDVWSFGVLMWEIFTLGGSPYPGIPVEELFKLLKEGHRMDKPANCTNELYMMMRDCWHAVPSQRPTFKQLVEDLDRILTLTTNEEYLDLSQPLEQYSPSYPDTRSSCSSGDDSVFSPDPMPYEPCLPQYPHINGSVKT

| Structure (SMILES) | pIC50 (FGFR2; [3]) | pIC50 (FGFR3 enzyme (Millipore) [1]) | pIC50 (FGFR1) | pIC50 (FGFR3 enzyme (Millipore) [2]; class symbols) | pIC50 (FGFR2) | pIC50 (FGFR3 enzyme (Millipore) [2]; numeric bounds) |
| --- | --- | --- | --- | --- | --- | --- |
| COc1cc(CCc2cnc3[nH]c(-c4cncc(N5CCOCC5)c4)cc3n2)cc(OC)c1 [Example 69, 4-(5-(2-(3,5-Dimethoxyphenethyl)-5H-pyrrolo[2,3-b]pyrazin-6-yl)pyridin-3-yl)morpholine] | > 7.00 | 6.30 to 7.00 | > 7.00 | – | – | – |
| COc1cc(CCc2cnc3[nH]c(-c4cnc(N)nc4)cc3n2)cc(OC)c1 [Example 58, 5-(2-(3,5-Dimethoxyphenethyl)-5H-pyrrolo[2,3-b]pyrazin-6-yl)pyrimidin-2-amine] | > 7.00 | 6.30 to 7.00 | > 7.00 | – | – | – |
| COc1cc(CCc2cnc3[nH]c(-c4ccc(OC)nc4)cc3n2)cc(OC)c1 [Example 61, 2-(3,5-Dimethoxyphenethyl)-6-(6-methoxypyridin-3-yl)-5H-pyrrolo[2,3-b]pyrazine] | > 7.00 | 6.30 to 7.00 | > 7.00 | – | – | – |
| COc1cc(CCc2cnc3[nH]c(-c4ccc(N5CCCC5=O)nc4)cc3n2)cc(OC)c1 [Example 68, 1-(5-(2-(3,5-Dimethoxyphenethyl)-5H-pyrrolo[2,3-b]pyrazin-6-yl)pyridin-2-yl)pyrrolidin-2-one] | > 7.00 | 6.30 to 7.00 | > 7.00 | – | – | – |
| COc1cc(CCc2cnc3[nH]c(-c4ccc(NC(C)=O)nc4)cc3n2)cc(OC)c1 [Example 67, N-(5-(2-(3,5-Dimethoxyphenethyl)-5H-pyrrolo[2,3-b]pyrazin-6-yl)pyridin-2-yl)acetamide] | > 7.00 | 6.30 to 7.00 | > 7.00 | – | – | – |
| COc1cc(CCc2cnc3[nH]c(-c4ccc(C(=O)NC(C)C)c(Cl)c4)cc3n2)cc(OC)c1 [Example 53, 2-Chloro-4-(2-(3,5-dimethoxyphenethyl)-5H-pyrrolo[2,3-b]pyrazin-6-yl)-N-isopropylbenzamide] | > 7.00 | – | > 7.00 | > 7.00 | – | – |
| COc1cc(CCc2cnc3[nH]c(-c4ccc(N5CCN(C)CC5)cc4)c(Cl)c3n2)cc(OC)c1 [Example 47, 7-chloro-2-[2-(3,5-dimethoxyphenyl)ethyl]-6-[4-(4-methylpiperazin-1-yl)phenyl]-5H-pyrrolo[2,3-b]pyrazine] | > 7.00 | – | > 7.00 | > 7.00 | – | – |
| CCN(CC)CC#Cc1cc2nc(CCc3cc(OC)cc(OC)c3)cnc2[nH]1 [Example 27, 3-{2-[2-(3,5-dimethoxyphenyl)ethyl]-5H-pyrrolo[2,3-b]pyrazin-6-yl}-N,N-diethylprop-2-yn-1-amine] | – | – | > 7.00 | – | 6.30 to 7.00 | < 5.70 |
| COc1cc(CCc2cnc3[nH]c(-c4cnn(CCN5CCCCC5)c4)cc3n2)cc(OC)c1 [Example 41, 2-[2-(3,5-dimethoxyphenyl)ethyl]-6-[1-(2-piperidin-1-ylethyl)-1H-pyrazol-4-yl]-5H-pyrrolo[2,3-b]pyrazine] | > 7.00 | – | > 7.00 | > 7.00 | – | – |
| COc1cc(CCc2cnc3[nH]c(-c4ccc(N5CCN(C)CC5)cc4)c(C)c3n2)cc(OC)c1 [Example 51, 2-[2-(3,5-dimethoxyphenyl)ethyl]-7-methyl-6-[4-(4-methylpiperazin-1-yl)phenyl]-5H-pyrrolo[2,3-b]pyrazine] | > 7.00 | – | > 7.00 | > 7.00 | – | – |
| COc1cc(CCc2cnc3[nH]c(-c4cccc(N5CCN(C)CC5)c4)cc3n2)cc(OC)c1 [Example 79, 2-(3,5-Dimethoxyphenethyl)-6-(3-(4-methylpiperazin-1-yl)phenyl)-5H-pyrrolo[2,3-b]pyrazine] | > 7.00 | – | > 7.00 | > 7.00 | – | – |
| COc1cc(OC)c(F)c(CCc2cnc3[nH]c(-c4cccnc4OC)cc3n2)c1F [Example 86, 2-(2,6-difluoro-3,5-dimethoxyphenethyl)-6-(2-methoxypyridin-3-yl)-5H-pyrrolo[2,3-b]pyrazine] | > 7.00 | – | > 7.00 | > 7.00 | – | – |
| COc1cc(CCc2cnc3[nH]c(-c4cnc5nccnc5c4)cc3n2)cc(OC)c1 [Example 66, 7-(2-(3,5-Dimethoxyphenethyl)-5H-pyrrolo[2,3-b]pyrazin-6-yl)pyrido[2,3-b]pyrazine] | > 7.00 | – | > 7.00 | – | – | < 5.70 |
| COc1cc(CCc2cnc3[nH]c(-c4ccc(N5CCN(C)CC5)cc4)c(Br)c3n2)cc(OC)c1 [Example 46, 7-bromo-2-[2-(3,5-dimethoxyphenyl)ethyl]-6-[4-(4-methylpiperazin-1-yl)phenyl]-5H-pyrrolo[2,3-b]pyrazine] | > 7.00 | – | > 7.00 | > 7.00 | – | – |
| COc1cc(OC)c(F)c(CCc2cnc3[nH]c(-c4ccccc4C#N)cc3n2)c1F [Example 85, 2-(2-(2,6-difluoro-3,5-dimethoxyphenethyl)-5H-pyrrolo[2,3-b]pyrazin-6-yl)benzonitrile] | > 7.00 | – | > 7.00 | > 7.00 | – | – |
| COc1cc(CCc2cnc3[nH]c(-c4cnn(CCN5CCOCC5)c4)cc3n2)cc(OC)c1 [Example 31, 2-[2-(3,5-dimethoxyphenyl)ethyl]-6-[1-(2-morpholin-4-ylethyl)-1H-pyrazol-4-yl]-5H-pyrrolo[2,3-b]pyrazine] | > 7.00 | – | > 7.00 | > 7.00 | – | – |
| COc1cc(OC)c(F)c(CCc2cnc3[nH]c(-c4cnn(CCN(C)C)c4)cc3n2)c1F [Example 87, 2-(4-(2-(2,6-difluoro-3,5-dimethoxyphenethyl)-5H-pyrrolo[2,3-b]pyrazin-6-yl)-1H-pyrazol-1-yl)-N,N-dimethylethanamine] | > 7.00 | – | > 7.00 | > 7.00 | – | – |
| COc1cc(CCc2cnc3[nH]c(-c4ccc(N5CCN(C)CC5=O)cc4)cc3n2)cc(OC)c1 [Example 76, 1-(4-(2-(3,5-Dimethoxyphenethyl)-5H-pyrrolo[2,3-b]pyrazin-6-yl)phenyl)-4-methylpiperazin-2-one] | > 7.00 | – | > 7.00 | > 7.00 | – | – |
| COc1cc(CCc2cnc3[nH]c(-c4cnn(C[C@H](C)O)c4)cc3n2)cc(OC)c1 [Example 39, (2S)-1-(4-{2-[2-(3,5-dimethoxyphenyl)ethyl]-5H-pyrrolo[2,3-b]pyrazin-6-yl}-1H-pyrazol-1-yl)propan-2-ol] | > 7.00 | – | > 7.00 | > 7.00 | – | – |
| COc1cc(CCc2cnc3[nH]c(-c4ccc(N5CCN(C)CC5)cc4)cc3n2)cc(OC)c1 [Example 1, 2-[2-(3,5-dimethoxyphenyl)ethyl]-6-[4-(4-methylpiperazin-1-yl)phenyl]-5H-pyrrolo[2,3-b]pyrazine] | > 7.00 | – | > 7.00 | > 7.00 | – | – |
| COc1cc(CCc2cnc3[nH]c(-c4cnn(C5CCOCC5)c4)cc3n2)cc(OC)c1 [Example 32, 2-[2-(3,5-dimethoxyphenyl)ethyl]-6-[1-(tetrahydro-2H-pyran-4-yl)-1H-pyrazol-4-yl]-5H-pyrrolo[2,3-b]pyrazine] | > 7.00 | – | > 7.00 | > 7.00 | – | – |
| COc1cc(CCc2cnc3[nH]c(-c4ccc(CN5CCCCC5)cc4)cc3n2)cc(OC)c1 [Example 11, 2-[2-(3,5-dimethoxyphenyl)ethyl]-6-[4-(piperidin-1-ylmethyl)phenyl]-5H-pyrrolo[2,3-b]pyrazine] | > 7.00 | – | > 7.00 | > 7.00 | – | – |
| COc1cc(OC)c(Cl)c(CCc2cnc3[nH]c(-c4ccc(N5CCN(C)CC5)cc4)cc3n2)c1Cl [Example 49, 2-[2-(2,6-dichloro-3,5-dimethoxyphenyl)ethyl]-6-[4-(4-methylpiperazin-1-yl)phenyl]-5H-pyrrolo[2,3-b]pyrazine] | > 7.00 | – | > 7.00 | > 7.00 | – | – |
| COc1cc(OC)c(F)c(CCc2cnc3[nH]c(-c4cnn(C)c4)cc3n2)c1F [Example 84, 2-(2,6-difluoro-3,5-dimethoxyphenethyl)-6-(1-methyl-1H-pyrazol-4-yl)-5H-pyrrolo[2,3-b]pyrazine] | > 7.00 | – | > 7.00 | > 7.00 | – | – |
| COc1cc(CCc2cnc3[nH]c(-c4ccc(N5CCN(CCO)CC5)cc4)cc3n2)cc(OC)c1 [Example 71, 2-(4-(4-(2-(3,5-Dimethoxyphenethyl)-5H-pyrrolo[2,3-b]pyrazin-6-yl)phenyl)piperazin-1-yl)ethanol] | > 7.00 | – | > 7.00 | > 7.00 | – | – |
| CCN1CCN(c2ccc(-c3cc4nc(CCc5cc(OC)cc(OC)c5)cnc4[nH]3)cc2)CC1 [Example 2, 2-[2-(3,5-dimethoxyphenyl)ethyl]-6-[4-(4-ethylpiperazin-1-yl)phenyl]-5H-pyrrolo[2,3-b]pyrazine] | > 7.00 | – | > 7.00 | > 7.00 | – | – |
| COc1cc(OC)c(F)c(CCc2cnc3[nH]c(-c4cn[nH]c4C)cc3n2)c1F [Example 83, 2-[2-(2,6-difluoro-3,5-dimethoxyphenyl)ethyl]-6-(5-methyl-1H-pyrazol-4-yl)-5H-pyrrolo[2,3-b]pyrazine] | > 7.00 | – | > 7.00 | > 7.00 | – | – |
| COc1cc(CCc2cnc3[nH]c(-c4ccc(C5CCN(C)CC5)cc4)cc3n2)cc(OC)c1 [Example 22, 2-[2-(3,5-dimethoxyphenyl)ethyl]-6-[4-(1-methylpiperidin-4-yl)phenyl]-5H-pyrrolo[2,3-b]pyrazine] | > 7.00 | – | > 7.00 | > 7.00 | – | – |
| COc1cc(CCc2cnc3[nH]c(-c4ccc(N5CCN(C)CC5)cc4)cc3n2)c(Cl)c(OC)c1 [Example 48, 2-[2-(2-chloro-3,5-dimethoxyphenyl)ethyl]-6-[4-(4-methylpiperazin-1-yl)phenyl]-5H-pyrrolo[2,3-b]pyrazine] | > 7.00 | – | > 7.00 | > 7.00 | – | – |
| COc1cc(CCc2cnc3[nH]c(-c4ccc(C(=O)N(C)C)c(Cl)c4)cc3n2)cc(OC)c1 [Example 56, 2-Chloro-4-(2-(3,5-dimethoxyphenethyl)-5H-pyrrolo[2,3-b]pyrazin-6-yl)-N,N-dimethylbenzamide] | > 7.00 | – | > 7.00 | > 7.00 | – | – |

Source: patent publication US9745311B2, “Substituted pyrrolo[2,3-b]pyrazines as FGFR inhibitors” (Incyte Corporation, priority 2012, dated 2017)
